# Literature values in patent US11045550B2, “Use of an amino sugar as plasticizer” (Merck Patent GmbH, priority 2016, dated 2021).
# What was measured:
# [1] = at 144° C., literature data
structure (smiles),measurement,setting,value
CC(C)Cc1ccc(C(C)C(=O)O)cc1 (stereo not shown) [Ibuprofen],Ibuprofen degraded when processed by HME,[1],11.6%
CCC(C)n1ncn(-c2ccc(N3CCN(c4ccc(OCC5COC(Cn6cncn6)(c6ccc(Cl)cc6Cl)O5)cc4)CC3)cc2)c1=O (stereo not shown) [Itraconazole],pKa (strongest basic),,3.92
"CNC[C@@H](O)[C@@H](O)[C@H](O)[C@H](O)CO [Meglumine, D-(−)-N-Methylglucamine]",pKa value,,9.60
CCCc1nc2c(C)cc(-c3nc4ccccc4n3C)cc2n1Cc1ccc(-c2ccccc2C(=O)O)cc1 [Telmisartan],pKa (strongest acidic),,3.65
